Measured values: ChEMBL document CHEMBL4513161, “CO-ADD screening of MMV (CH) - Pandemic Response Box” (2021)
≈ marks a conversion by molar mass, not a printed value.

How the values were obtained:
Candida albicans = assay: microbe, parasite or virus in culture; conditions: ATCC 90028, ASSAY_TEST Inhibition of Fungal Growth, detection method Absorption (OD530), plate type 384well, NBS, CORNING #3640
Description: Antifungal activity against Candida albicans ATCC 90028 (CO-ADD:FG_001); MIC in YNB media using NBS plates, by OD630

Acinetobacter baumannii = assay: microbe, parasite or virus in culture; conditions: ATCC 19606, 18 h, ASSAY_TEST Inhibition of Bacterial Growth, detection method Absorption (OD600), MEDIA CAMHB, plate type 384well, NBS, CORNING #3640
Description: Antibacterial activity against Acinetobacter baumannii ATCC 19606 (CO-ADD:GN_034); MIC in CAMBH media using NBS plates, by OD600

Pseudomonas aeruginosa [1] = assay: Antibacterial activity against Pseudomonas aeruginosa PAO397 [PAO1 d(mexAB-oprM) d(mexCD-oprJ) d(mexEF-oprN) d(mexJKL) d(mexXY) d(opmH)] (CO-ADD:GN_211); MIC in CAMBH media using NBS plates, by OD(600); type: functional; conditions: ASSAY_TEST Inhibition of Bacterial Growth, detection method Absorption (OD600), MEDIA CAMHB, plate type 384well, CORNING #3640, time 18 hr
Pseudomonas aeruginosa [2] = assay: microbe, parasite or virus in culture; conditions: ATCC 27853, 18 h, ASSAY_TEST Inhibition of Bacterial Growth, detection method Absorption (OD600), MEDIA CAMHB, plate type 384well, NBS, CORNING #3640
Description: Antibacterial activity against Pseudomonas aeruginosa ATCC 27853 (CO-ADD:GN_042); MIC in CAMBH media using NBS plates, by OD(600)

Escherichia coli = assay: microbe, parasite or virus in culture; conditions: ATCC 25922, 18 h, ASSAY_TEST Inhibition of Bacterial Growth, detection method Absorption (OD600), MEDIA CAMHB, plate type 384well, NBS, CORNING #3640
Description: Antibacterial activity against Escherichia coli ATCC 25922 (CO-ADD:GN_001); MIC in CAMBH media using NBS plates, by OD(600)

HEK293 = assay: cells; type: functional, Homo sapiens, ATCC CRL1573; conditions: Homo sapiens, ATCC CRL1573, HEK293; ASSAY_TEST Inhibition of Cell Viability; detection method Resazurin; Fluorescence (ex560/em590); MEDIA DMEM with 10% FBS; plate type 384well; TC; CORNING #3712; time 18 hr; read-out: CC50
Staphylococcus aureus = assay: microbe, parasite or virus in culture; conditions: ATCC 43300, 18 h, ASSAY_TEST Inhibition of Bacterial Growth, detection method Absorption (OD600), MEDIA CAMHB, plate type 384well, NBS, CORNING #3640
Description: Antibacterial activity against Staphylococcus aureus MRSA ATCC 43300 (CO-ADD:GP_020); MIC in CAMBH media, using NBS plates, by OD(600)

Klebsiella pneumoniae = assay: microbe, parasite or virus in culture; conditions: ATCC 700603, 18 h, ASSAY_TEST Inhibition of Bacterial Growth, detection method Absorption (OD600), MEDIA CAMHB, plate type 384well, NBS, CORNING #3640
Description: Antibacterial activity against Klebsiella pneumoniae MDR ATCC 70063 (CO-ADD:GN_003); MIC in CAMBH media using NBS plates, by OD(600)

Description for Cryptococcus neoformans: Antifungal activity against Cryptococcus neoformans H99 ATCC 208821 (CO-ADD:FG_002); MIC in YNB media using NBS plates, by Resazurin OD(600-570)

Row | Structure (SMILES) | MIC (Candida albicans) [µM] | MIC (Acinetobacter baumannii) [µM] | MIC (Pseudomonas aeruginosa [1]) [µM] | MIC (Cryptococcus neoformans) [µM] | MIC (Pseudomonas aeruginosa [2]) [µM] | MIC (Escherichia coli) [µM] | MIC (Staphylococcus aureus) [µM] | MIC (Klebsiella pneumoniae) [µM] | CC50 (HEK293) [µM]
1 | O=C(Cn1cnc2ccccc2c1=O)Nc1ccccc1 | > 20 | > 20 | > 20 | > 20 | > 20 | > 20 | > 20 | > 20 | > 20
2 | CC[C@H](CO)Nc1nc(NCc2ccccc2)c2ncn(C(C)C)c2n1 [SELICICLIB] | > 20 | > 20 | > 20 | > 20 | > 20 | > 20 | > 20 | > 20 | > 20
3 | CCCCc1ccc(S(=O)(=O)Nc2cc(C)on2)cc1 | > 20 | > 20 | > 20 | > 20 | > 20 | > 20 | > 20 | > 20 | > 20
4 | C[C@H]1CC[C@]2(NC1)O[C@H]1C[C@H]3[C@@H]4CC[C@H]5C[C@@H](O)CC[C@]5(C)[C@H]4CC[C@]3(C)[C@H]1[C@@H]2C | 20 (≈ 8.31 µg/mL) | > 20 | > 20 | > 20 | > 20 | > 20 | > 20 | > 20 | > 20
5 | O=C(NCCN1CCCCC1)c1cccc(C(F)(F)F)c1 | > 20 | > 20 | > 20 | > 20 | > 20 | > 20 | > 20 | > 20 | > 20
6 | O=C(NC1CCCc2c1[nH]c1ccc(Cl)cc21)c1ccccn1 (configuration not stated) | > 20 | > 20 | 20 (≈ 6.52 µg/mL) | > 20 | > 20 | > 20 | > 20 | > 20 | > 20
7 | C[C@H](NC(CC(=O)c1ccccc1C(F)(F)F)C(=O)O)c1ccccc1 (some centres not stated) | > 20 | > 20 | > 20 | > 20 | > 20 | > 20 | > 20 | > 20 | > 20
8 | Cc1[nH]c2ccccc2c1CC(=O)N[C@@H](Cc1ccccc1)C(=O)N(C)c1ccccc1 | > 20 | > 20 | > 20 | > 20 | > 20 | > 20 | > 20 | > 20 | > 20
9 | CCOc1ccc(C(=O)NCCc2ccccc2)cc1 | > 20 | > 20 | > 20 | > 20 | > 20 | > 20 | > 20 | > 20 | > 20
10 | Clc1cccc(-c2nnc(-c3ccccc3)o2)c1 | > 20 | > 20 | > 20 | > 20 | > 20 | > 20 | > 20 | > 20 | > 20
11 | CCNC(=O)Nc1cc(-c2ccccc2)c(-c2cncc(C(=O)O)c2)cn1 | > 20 | > 20 | > 20 | > 20 | > 20 | > 20 | > 20 | > 20 | > 20
12 | C/C(=N\NC(=O)C1CC1c1ccccc1)c1ccc(NC(=O)c2ccco2)cc1 (configuration not stated) | > 20 | > 20 | > 20 | > 20 | > 20 | > 20 | > 20 | > 20 | > 20
13 | Cc1ccn2c(C(=O)NCc3ccccc3)c(C)nc2c1 | > 20 | > 20 | > 20 | > 20 | > 20 | > 20 | > 20 | > 20 | > 20
14 | CC1=C(/C=C/C(C)=C/C=C/C(C)=C/C(=O)Nc2ccc(O)cc2)C(C)(C)CCC1 [FENRETINIDE] | > 20 | > 20 | > 20 | > 20 | > 20 | > 20 | > 20 | > 20 | > 20
15 | COc1nc2ccc(Br)cc2cc1[C@@H](c1ccccc1)[C@@](O)(CCN(C)C)c1cccc2ccccc12 [BEDAQUILINE] | > 20 | > 20 | > 20 | > 20 | > 20 | > 20 | > 20 | > 20 | > 20
16 | C=C[C@]1(C)C[C@@H](OC(=O)CS[C@@H]2C[C@H]3CC[C@@H](C2)N3C)[C@]2(C)[C@H](C)CC[C@]3(CCC(=O)[C@H]32)[C@@H](C)[C@@H]1O [RETAPAMULIN] | > 20 | > 20 | 2.5 (≈ 1.29 µg/mL) | > 20 | > 20 | > 20 | ≤ 0.156 | > 20 | > 20
17 | CN1C(=O)C(c2ccccc2)C(=O)N(c2ccccc2)c2cc(C(F)(F)F)ccc21 (configuration not stated) | > 20 | > 20 | > 20 | > 20 | > 20 | > 20 | > 20 | > 20 | > 20
18 | Oc1c(C(Nc2ccccn2)c2ccccc2)ccc2cccnc12 (configuration not stated) | 20 (≈ 6.55 µg/mL) | > 20 | > 20 | 20 (≈ 6.55 µg/mL) | > 20 | > 20 | > 20 | > 20 | 19.6
19 | COc1ccc2cc3[n+](cc2c1OCCN(CCn1cncn1)Cc1ccc(F)cc1F)CCc1cc2c(cc1-3)OCO2 | > 20 | > 20 | > 20 | > 20 | > 20 | > 20 | > 20 | > 20 | > 20

Second part, led by results:

Row | MIC (Candida albicans) [µM] | MIC (Acinetobacter baumannii) [µM] | MIC (Pseudomonas aeruginosa [1]) [µM] | MIC (Cryptococcus neoformans) [µM] | MIC (Pseudomonas aeruginosa [2]) [µM] | MIC (Escherichia coli) [µM] | MIC (Staphylococcus aureus) [µM] | MIC (Klebsiella pneumoniae) [µM] | Structure (SMILES) | CC50 (HEK293) [µM]
20 | > 20 | > 20 | > 20 | > 20 | > 20 | > 20 | > 20 | > 20 | O=C(O)c1cc(-c2ccccc2)nc2ccccc12 [CINCHOPHEN] | > 20
21 | > 20 | > 20 | > 20 | > 20 | > 20 | > 20 | > 20 | > 20 | Cc1nc(Nc2ccc(F)cc2)nc(N2CCc3ccccc3C2C)c1C (configuration not stated) [REVAPRAZAN] | > 20
22 | > 20 | > 20 | > 20 | > 20 | > 20 | > 20 | > 20 | > 20 | O=S(=O)(Nc1cccc2cccnc12)c1ccccc1 | 2.25
23 | > 20 | > 20 | > 20 | > 20 | 2.5 (≈ 0.621 µg/mL) | 1.25 (≈ 0.31 µg/mL) | 1.25 (≈ 0.31 µg/mL) | 20 (≈ 4.97 µg/mL) | CCc1cc(O)c(Oc2cccnc2N)cc1F | > 20
24 | > 20 | > 20 | > 20 | > 20 | > 20 | > 20 | > 20 | > 20 | CCOC(=O)/C=C/[C@H](C[C@@H]1CCNC1=O)NC(=O)[C@H](CC)n1cccc(NC(=O)c2cc(C)on2)c1=O | > 20
25 | > 20 | > 20 | > 20 | > 20 | > 20 | > 20 | > 20 | > 20 | O=C(O)C(Cc1c[nH]c2ccccc12)N1C(=O)c2ccccc2C1=O (configuration not stated) | > 20
26 | > 20 | > 20 | > 20 | > 20 | > 20 | > 20 | > 20 | > 20 | CN(C)CCCNC(=O)c1ccc(-c2cc(O)c3ncccc3c2)cc1 | 16.6
27 | > 20 | > 20 | > 20 | > 20 | > 20 | > 20 | > 20 | > 20 | Cc1cc(C)n2nc(C(=O)NS(=O)(=O)c3c(C)cccc3OC(F)(F)F)nc2n1 | > 20
28 | > 20 | > 20 | > 20 | > 20 | > 20 | > 20 | 20 (≈ 11.1 µg/mL) | > 20 | COc1c(NC(=O)[C@H]2CC[C@@H](COc3ccc([N+](=O)[O-])cc3)CC2)c(F)cc2c(=O)c(C(=O)O)cn(C3CC3)c12 | > 20
